Entries after “also recorded” stand apart in the source; their conditions may differ. Structures can show the parent of a compound that is named as a salt. Where two headings read alike, the source gives them in different places.
Experiments:
[1] = tested on: learning and memory disorder induced by intracerebroventricular injection of Aβ1-42; assay: Morris water maze test, rats with intracerebroventricular injection of Aβ1-42; type: in vivo; details: Aβ1-42 rats
Procedure: The model of learning and memory disorder induced after intracerebroventricular injection of Aβ1-42 is the most common animal model for evaluating whether a compound has the effect of improving the learning and memory. […] Morris water maze test and the model of learning and memory disorder induced by intracerebroventricular injection of Aβ1-42 were employed in the present research, and the improvement effects of I-33 on learning and memory of rats at various concentration (0.7 mg/Kg, 3.5 mg/Kg, and 7 mg/Kg) were evaluated.
SD, male (220±20 g), the animals were fed in light: dark cycle (12 h/12 h) in a cleaning level of animal room, ad lib. The tests were performed after 3 days acclimation in the animal room. Aβ1-42 was formulated to 2 μg/μl according to the instruction of specification.
(1) Normal group: intracerebroventricular injection of physiological saline
(2) Model group with intracerebroventricular injection of Aβ1-42: intracerebroventricular injection of Aβ1-42
(4) I-33 (low concentration group): I-33 (0.7 mg/Kg)+intracerebroventricular injection of Aβ1-42
(5) I-33 (medium concentration group): I-33 (3.5 mg/Kg)+intracerebroventricular injection of Aβ1-42
(6) I-33 (high concentration group): I-33 (7 mg/Kg)+intracerebroventricular injection of Aβ1-42
Each rat in normal control group received intracerebroventricular injection of 5 μl of physiological saline, each rat in the other groups received intracerebroventricular injection of 5 μl of Aβ1-42. After the operation, the rats received the following tests after 1 week recovery period. […] The drugs were administered for 8 days, the training for water maze test was started on the 5th day, and the water maze test was formally started on the 9th day.

acetylcholinesterase = acetylcholinesterase (Homo sapiens (Human), UniProt P22303); assay: biochemical; type: biochemical; details: for potency on acetylcholinesterase compared with positive control drug donepezil hydrochloride: in vitro, enzymology level
[2] = tested on: learning and memory disorder of mice induced by scopolamine; assay: Morris water maze test, senile dementia mice model induced by scopolamine; type: in vivo; details: for effect on learning and memory disorder of mice induced by scopolamine: Morris water maze, in comparison with model group / donepezil hydrochloride group; for latent period day 1 / latent period day 2 / latent period day 3 / latent period day 4 / latent period day 5 / times of crossing platform: scopolamine 1 mg/kg
[3] = DPH 3 mg/Kg, I-33 all dosages tested
[4] = modified Ellman method, read-out: IC50 (nM), inhibition activity on acetylcholinesterase
[5] = read-out: IC50 (nM), inhibition activity on acetylcholinesterase

Chain of acetylcholinesterase (P22303 32-614, species assumed): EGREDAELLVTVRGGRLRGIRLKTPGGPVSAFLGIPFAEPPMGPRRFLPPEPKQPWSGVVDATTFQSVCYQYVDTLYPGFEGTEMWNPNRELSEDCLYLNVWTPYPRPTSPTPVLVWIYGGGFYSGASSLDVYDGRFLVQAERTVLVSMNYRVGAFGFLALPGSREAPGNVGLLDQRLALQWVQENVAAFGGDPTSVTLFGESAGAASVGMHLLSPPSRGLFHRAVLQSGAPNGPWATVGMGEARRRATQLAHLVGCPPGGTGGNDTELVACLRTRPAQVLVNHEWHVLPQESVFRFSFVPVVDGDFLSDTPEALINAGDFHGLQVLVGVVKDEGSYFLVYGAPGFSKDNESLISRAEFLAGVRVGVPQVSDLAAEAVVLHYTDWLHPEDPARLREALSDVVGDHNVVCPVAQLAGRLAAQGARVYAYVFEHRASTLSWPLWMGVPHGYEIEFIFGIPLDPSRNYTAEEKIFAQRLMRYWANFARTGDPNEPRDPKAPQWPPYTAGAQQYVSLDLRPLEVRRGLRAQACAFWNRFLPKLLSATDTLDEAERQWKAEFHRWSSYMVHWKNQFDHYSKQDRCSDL

COc1cc2c(cc1OC)C(=O)C(CC1CCN(Cc3ccccc3)CC1)C2 (centres unmarked) [DPH, donepezil hydrochloride, reference compound]
The period of reaching the platform for the first time (latent period) ([1]; 3 mg/Kg intragastric, 8 days): 23.94 ± 4.84
times of crossing platform ([1]; 3 mg/Kg intragastric, 8 days): 3.22 ± 0.55
effect on period required for reaching the platform for the first time (latent period) [1, 3]: significantly shorten the period required for reaching the platform for the first time
effect on times of crossing the platform [1, 3]: significantly increases the times of crossing the platform

O=C1c2cc3c(cc2C2(CC2)N1CCC1CCN(Cc2ccccc2)CC1)OCO3 [Compound I-17, 6-[2-(1-benzyl-4-piperidyl)ethyl]spiro[[1,3]dioxolo[4,5-f]isoindole-7,1′-cyclopropane]-5-one]
IC50 (acetylcholinesterase; IC50 (nM), inhibition activity on acetylcholinesterase, modified Ellman method): 202 nM
potency on acetylcholinesterase compared with positive control drug donepezil hydrochloride (acetylcholinesterase): slightly lower potency than the positive control drug; also recorded: comparable inhibition activity on acetylcholinesterase with donepezil hydrochloride
effect on learning and memory disorder of mice induced by scopolamine [2]: superior to the donepezil hydrochloride group; also recorded: had the effect of improving the learning and memory disorder of mice induced by scopolamine; also recorded: stronger effects of improving learning and memory
latent period day 1 ([2]; Table 2, 5 mg/kg intragastric): 56.8 ± 8.6 s
latent period day 2 ([2]; Table 2, 5 mg/kg intragastric): 60 ± 0 s
latent period day 3 ([2]; Table 2, 5 mg/kg intragastric): 48.7 ± 15.7 s
latent period day 4 ([2]; Table 2, 5 mg/kg intragastric): 56.7 ± 8.1 s
latent period day 5 ([2]; Table 2, 5 mg/kg intragastric): 47.2 ± 13.4 s
times of crossing platform ([2]; Table 2, 5 mg/kg intragastric): 1.8 ± 2.5
latent period day 1 ([2]; Table 6, 5 mg/kg intragastric): 57.3 ± 6.7 s
latent period day 2 ([2]; Table 6, 5 mg/kg intragastric): 56.3 ± 9.1 s
latent period day 3 ([2]; Table 6, 5 mg/kg intragastric): 52.5 ± 10.4 s
latent period day 4 ([2]; Table 6, 5 mg/kg intragastric): 46.4 ± 16.6 s
latent period day 5 ([2]; Table 6, 5 mg/kg intragastric): 43.7 ± 11.8 s
times of crossing platform ([2]; Table 6, 5 mg/kg intragastric): 2.00 ± 1.41
latent period day 1 ([2]; Table 6, 10 mg/kg intragastric): 59.9 ± 0.3 s
latent period day 2 ([2]; Table 6, 10 mg/kg intragastric): 58.1 ± 6.2 s
latent period day 3 ([2]; Table 6, 10 mg/kg intragastric): 51.1 ± 12.0 s
latent period day 4 ([2]; Table 6, 10 mg/kg intragastric): 42.1 ± 15.5 s
latent period day 5 ([2]; Table 6, 10 mg/kg intragastric): 39.3 ± 16.7 s
times of crossing platform ([2]; Table 6, 10 mg/kg intragastric): 2.60 ± 1.96

O=C1c2cc3c(cc2C(=O)N1CCC1CCN(Cc2cccc(F)c2)CC1)OCO3 [Compound I-3, 6-[2-[1-[(3-fluorophenyl)methyl]-4-piperidyl]ethyl]-[1,3]dioxolo[4,5-f]isoindole-5,7-dione]
potency on acetylcholinesterase compared with positive control drug donepezil hydrochloride (acetylcholinesterase): slightly lower potency than the positive control drug
IC50 (acetylcholinesterase; [4]): 269 nM
effect on learning and memory disorder of mice induced by scopolamine [2]: decreases significantly
latent period day 1 ([2]; Table 3, 5 mg/kg intragastric): 56.5 ± 8.5 s
latent period day 2 ([2]; Table 3, 5 mg/kg intragastric): 56.5 ± 8.6 s
latent period day 3 ([2]; Table 3, 5 mg/kg intragastric): 60 ± 0 s
latent period day 4 ([2]; Table 3, 5 mg/kg intragastric): 43.9 ± 15.4 s
latent period day 5 ([2]; Table 3, 5 mg/kg intragastric): 34.0 ± 19.5 s
times of crossing platform ([2]; Table 3, 5 mg/kg intragastric): 1.9 ± 1.5
latent period day 1 ([2]; Table 3, 10 mg/kg intragastric): 59.3 ± 2.6 s
latent period day 2 ([2]; Table 3, 10 mg/kg intragastric): 56.3 ± 9.7 s
latent period day 3 ([2]; Table 3, 10 mg/kg intragastric): 55.5 ± 9.5 s
latent period day 4 ([2]; Table 3, 10 mg/kg intragastric): 49.4 ± 15.7 s
latent period day 5 ([2]; Table 3, 10 mg/kg intragastric): 45.0 ± 15.0 s
times of crossing platform ([2]; Table 3, 10 mg/kg intragastric): 1.1 ± 1.1

O=C1c2cc3c(cc2C2(CC2)N1CCC1CCN(Cc2ccccc2F)CC1)OCO3 [Compound I-18, 6-[2-[1-[(2-fluorophenyl)methyl]-4-piperidyl]ethyl]spiro[[1,3]dioxolo[4,5-f]isoindole-7,1′-cyclopropane]-5-one]
potency on acetylcholinesterase compared with positive control drug donepezil hydrochloride (acetylcholinesterase): slightly lower potency than the positive control drug
IC50 (acetylcholinesterase; [4]): 154 nM
effect on learning and memory disorder of mice induced by scopolamine [2]: can improve the learning and memory disorder of the animals induced by scopolamine
latent period day 1 ([2]; Table 2, 5 mg/kg intragastric): 60 ± 0 s
latent period day 2 ([2]; Table 2, 5 mg/kg intragastric): 60 ± 0 s
latent period day 3 ([2]; Table 2, 5 mg/kg intragastric): 53.1 ± 10.4 s
latent period day 4 ([2]; Table 2, 5 mg/kg intragastric): 56.9 ± 8.2 s
latent period day 5 ([2]; Table 2, 5 mg/kg intragastric): 56.8 ± 8.6 s
times of crossing platform ([2]; Table 2, 5 mg/kg intragastric): 0.5 ± 0.6
latent period day 1 ([2]; Table 3, 5 mg/kg intragastric): 55.0 ± 10.3 s
latent period day 2 ([2]; Table 3, 5 mg/kg intragastric): 55.9 ± 9.0 s
latent period day 3 ([2]; Table 3, 5 mg/kg intragastric): 60 ± 0 s
latent period day 4 ([2]; Table 3, 5 mg/kg intragastric): 51.8 ± 15.6 s
latent period day 5 ([2]; Table 3, 5 mg/kg intragastric): 35.6 ± 15.4 s
times of crossing platform ([2]; Table 3, 5 mg/kg intragastric): 1.5 ± 1.7
latent period day 1 ([2]; Table 3, 10 mg/kg intragastric): 56.0 ± 9.9 s
latent period day 2 ([2]; Table 3, 10 mg/kg intragastric): 52.4 ± 12.4 s
latent period day 3 ([2]; Table 3, 10 mg/kg intragastric): 60 ± 0 s
latent period day 4 ([2]; Table 3, 10 mg/kg intragastric): 48.8 ± 15.4 s
latent period day 5 ([2]; Table 3, 10 mg/kg intragastric): 49.2 ± 15.9 s
times of crossing platform ([2]; Table 3, 10 mg/kg intragastric): 1.5 ± 1.2

O=C1c2cc3c(cc2C2(CC2)N1CCC1CCN(Cc2cccc(F)c2)CC1)OCO3 [Compound I-19, 6-[2-[1-[(3-fluorophenyl)methyl]-4-piperidyl]ethyl]spiro[[1,3]dioxolo[4,5-f]isoindole-7,1′-cyclopropane]-5-one]
potency on acetylcholinesterase compared with positive control drug donepezil hydrochloride (acetylcholinesterase): even lower
IC50 (acetylcholinesterase; [4]): 376 nM
effect on learning and memory disorder of mice induced by scopolamine [2]: can improve the learning and memory disorder of the animals induced by scopolamine
latent period day 1 ([2]; Table 2, 5 mg/kg intragastric): 60 ± 0 s
latent period day 2 ([2]; Table 2, 5 mg/kg intragastric): 60 ± 0 s
latent period day 3 ([2]; Table 2, 5 mg/kg intragastric): 55.2 ± 11.8 s
latent period day 4 ([2]; Table 2, 5 mg/kg intragastric): 57.3 ± 10.4 s
latent period day 5 ([2]; Table 2, 5 mg/kg intragastric): 53.9 ± 12.4 s
times of crossing platform ([2]; Table 2, 5 mg/kg intragastric): 0.8 ± 1.4

CC1c2cc3c(cc2C(=O)N1CCC1CCN(Cc2cccc(F)c2)CC1)OCO3 (centres unmarked) [Compound I-11, 6-[2-[1-[(3-fluorophenyl)methyl]-4-piperidyl]ethyl]-5-methyl-5H-[1,3]dioxolo[4,5-f]isoindol-7-one]
potency on acetylcholinesterase compared with positive control drug donepezil hydrochloride (acetylcholinesterase): even lower
IC50 (acetylcholinesterase; [4]): 889 nM

O=C1c2cc3c(cc2C(=O)N1CCC1CCN(Cc2ccc(F)cc2)CC1)OCO3 [Compound I-4, 6-[2-[1-[(4-fluorophenyl)methyl]-4-piperidyl]ethyl]-[1,3]dioxolo[4,5-f]isoindole-5,7-dione]
potency on acetylcholinesterase compared with positive control drug donepezil hydrochloride (acetylcholinesterase): slightly lower potency than the positive control drug; also recorded: comparable inhibition activity on acetylcholinesterase with donepezil hydrochloride
IC50 (acetylcholinesterase; [4]): 167 nM

O=C1c2cc3c(cc2C2(CC2)N1CCC1CCN(Cc2ccncc2)CC1)OCO3 [Compound I-31, 6-[2-[1-(4-pyridylmethyl)-4-piperidyl]ethyl]spiro[[1,3]dioxolo[4,5-f]isoindole-7,1′-cyclopropane]-5-one]
potency on acetylcholinesterase compared with positive control drug donepezil hydrochloride (acetylcholinesterase): relative low activity
IC50 (acetylcholinesterase; [5]): > 2000 nM

COc1cccc(CN2CCC(CCN3C(=O)c4cc5c(cc4C34CC4)OCO5)CC2)c1 [Compound I-27, 6-[2-[1-[(3-methoxyphenyl)methyl]-4-piperidyl]ethyl]spiro[[1, 3]dioxolo[4,5-f]isoindole-7,1′-cyclopropane]-5-one]
potency on acetylcholinesterase compared with positive control drug donepezil hydrochloride (acetylcholinesterase): relative low activity
IC50 (acetylcholinesterase; [4]): > 2000 nM

O=C1c2cc3c(cc2C2(CC2)N1CCC1CCN(Cc2ccc[nH]2)CC1)OCO3 [Compound I-39, 6-[2-[1-(1H-pyrrol-2-ylmethyl)-4-piperidyl]ethyl]spiro[[1,3]dioxolo[4,5-f]isoindole-7,1′-cyclopropane]-5-one]
potency on acetylcholinesterase compared with positive control drug donepezil hydrochloride (acetylcholinesterase): relative low activity
IC50 (acetylcholinesterase; [5]): > 2000 nM

— US9346818B2 (priority 2012, dated 2016)
